One block for each molecule: values may come before it.
Columns and labels:
THP1Blue cells, NOD1 = assay: THP1Blue NF-κB-SEAP reporter assay, TriDAP (NOD1); format: cell-based; conditions: Homo sapiens; TriDAP 10 μg/ml; read-out: THP1-Blue NF-κB Inhibition IC50 (TriDAP)
[1] = molecular target: T1, proteins of U2OS cell lysate (Homo sapiens, UniProt Q92598); assay: Drug affinity chromatography with c-ponatinib and LC-MS/MS (ponatinib interactome); format: binding
T1 construct: Proteins enriched by c-ponatinib from U2OS cell lysate; endogenous in cells; host or cells: U2OS cell lysate
T1 sequence (Q92598 whole entry): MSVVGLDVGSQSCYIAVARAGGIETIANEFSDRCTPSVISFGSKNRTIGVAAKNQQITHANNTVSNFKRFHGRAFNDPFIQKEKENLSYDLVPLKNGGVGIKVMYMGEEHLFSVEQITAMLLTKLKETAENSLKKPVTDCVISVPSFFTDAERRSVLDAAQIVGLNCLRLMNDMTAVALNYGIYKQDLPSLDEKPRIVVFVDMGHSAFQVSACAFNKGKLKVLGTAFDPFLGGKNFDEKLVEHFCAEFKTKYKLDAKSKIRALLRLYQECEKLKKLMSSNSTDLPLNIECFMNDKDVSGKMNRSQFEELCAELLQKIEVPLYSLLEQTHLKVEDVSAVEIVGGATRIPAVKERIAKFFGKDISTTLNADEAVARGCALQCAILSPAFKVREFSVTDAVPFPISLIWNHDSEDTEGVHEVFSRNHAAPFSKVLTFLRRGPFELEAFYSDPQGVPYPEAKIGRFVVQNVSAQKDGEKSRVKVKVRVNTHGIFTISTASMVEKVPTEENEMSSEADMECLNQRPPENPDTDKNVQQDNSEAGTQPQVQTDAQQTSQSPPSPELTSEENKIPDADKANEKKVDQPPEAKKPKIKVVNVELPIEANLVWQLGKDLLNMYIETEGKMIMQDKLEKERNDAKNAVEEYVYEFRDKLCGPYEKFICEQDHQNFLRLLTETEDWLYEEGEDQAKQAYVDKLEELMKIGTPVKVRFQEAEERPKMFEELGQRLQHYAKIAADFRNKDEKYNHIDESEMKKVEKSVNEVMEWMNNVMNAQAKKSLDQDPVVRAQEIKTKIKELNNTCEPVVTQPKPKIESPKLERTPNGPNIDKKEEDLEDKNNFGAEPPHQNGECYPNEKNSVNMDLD
Outline: (§1)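 U2OS cell lysate in NP-40 lysis buffer (2 mg protein per pulldown) was incubated with amine-derivatized NHS beads for 2 h at 4 °C. Bound proteins were washed, eluted with 100 mM formic acid, reduced, alkylated and trypsin-digested, then identified by nano-UPLC–MS/MS on Orbitrap instruments with a 60 min gradient.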

[2] = molecular target: T2, proteins of U2OS cell lysate (Homo sapiens, UniProt P30049); assay: as above; format: binding
T2 construct: Proteins enriched by c-ponatinib from U2OS cell lysate; endogenous in cells; host or cells: U2OS cell lysate
T2 sequence (P30049 23-168): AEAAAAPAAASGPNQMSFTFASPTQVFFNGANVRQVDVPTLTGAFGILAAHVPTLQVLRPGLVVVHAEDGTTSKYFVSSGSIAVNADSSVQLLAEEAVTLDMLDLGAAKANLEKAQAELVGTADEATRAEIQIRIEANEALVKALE
Outline: as §1

[3] = molecular target: T3, proteins of U2OS cell lysate (Homo sapiens, UniProt O95816); assay: as above; format: binding
T3 construct: Proteins enriched by c-ponatinib from U2OS cell lysate; endogenous in cells; host or cells: U2OS cell lysate
T3 sequence (O95816 whole entry): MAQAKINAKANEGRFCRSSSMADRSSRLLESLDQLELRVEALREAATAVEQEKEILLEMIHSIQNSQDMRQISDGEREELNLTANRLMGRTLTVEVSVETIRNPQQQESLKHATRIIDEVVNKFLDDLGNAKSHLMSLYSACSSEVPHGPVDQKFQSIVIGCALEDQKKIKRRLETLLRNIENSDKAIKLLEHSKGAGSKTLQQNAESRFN
Outline: as §1

IC50 (THP1Blue cells, NOD1): 0.0208 ± 0.0012 µM
SMILES: CCCS(=O)(=O)Nc1cc(-c2cc(-c3ccc(N4CCNCC4)cc3)cnc2N)cc(F)c1OC [CSLP37]

SMILES: CCCS(=O)(=O)Nc1cc(-c2cc(-c3ccc(N4CCNCC4)cc3)cnc2N)cc(OC)c1OC [CSLP43]
IC50 (THP1Blue cells, NOD1): 0.00143 ± 0.0001 µM

SMILES: Cc1ccc(C(=O)Nc2ccc(CN3CCN(C)CC3)c(C(F)(F)F)c2)cc1C#Cc1cnc2cccnn12 [PON]
Average LFQ PON_WT ([1]; HSPH1, Heat shock protein 105 kDa): 22.355 | Average LFQ PON_WT ([2]; ATP5D, ATP synthase subunit delta, mitochondrial): 23.0608 | Average LFQ PON_WT ([3]; BAG2, BAG family molecular chaperone regulator 2): 22.6462

SMILES: Cc1ccc(C(=O)Nc2ccc(CN3CCN(CCCN)CC3)c(C(F)(F)F)c2)cc1C#Cc1cnc2cccnn12 [c-ponatinib, reference compound]
Average LFQ intensity ([1]; captured protein HSPH1, Rank 164): 22.3551 | Average LFQ intensity ([2]; captured protein ATP5D, Rank 121): 23.0608 | Average LFQ intensity ([3]; captured protein BAG2, Rank 152): 22.6462

— publication PMC6120666 (The EMBO Journal, 2018)
